The results in this text go back to patent publication US20050148570A1, “Novel substituted alkane compounds and uses thereof” (priority 2001, published 2005).

≈ marks a conversion by molar mass, not a printed value.

One series concerns S. aureus. Description: MIC, broth dilution method. Format: cell-based. The settings on record: for MIC: Staphylococcus aureus, read-out: Antibacterial Activity against S. aureus MIC. On the procedure: (§1) Antibacterial activity can be determined by several standard methods well known by those skilled in the art, including disc diffusions methods, broth dilution minimal inhibitory concentration (MIC) methods, etc., including the detailed method outlined below. Cultures of bacteria are initially brought up from the freezer by streaking a loopful onto agar plates under the appropriate conditions. For instance stocks are streaked onto chocolate agar and then incubated for 18 hours at 35-37° C. in a 5% CO2 incubator. Five to 10 colonies are picked from the chocolate agar plate for subculture to Brain-Heart Infusion (BHI) broth or Mueller Hinton broth or BHI containing 4% serum and incubated under the appropriate conditions. The ability of the test compound to act as an antimicrobial is determined by the ability to inhibit bacterial, algae, or fungal growth in vitro. The optical density of the culture of organisms in the presence of an active compound is compared to the optical density of the same organism untreated. The activity of the compounds is described as either negative or the lowest concentration inhibiting growth.

The test system of a further series is C. diphtheriae. The experiment in a line: MIC, broth dilution method. The series is classed as cell-based. The settings on record: Corynebacterium diphtheriae, read-out: MIC Anti-Bacterial Activity. On the procedure:
as §1

A further series has as its system H. influenzae. Description: MIC, broth dilution method. The settings on record: Haemophilus influenzae, read-out: MIC Anti-Bacterial Activity. Format: cell-based. On the procedure: as §1
The next series deals with M. catarrhalis. Description: MIC, broth dilution method. The series is classed as cell-based. As to conditions: Moraxella catarrhalis, read-out: MIC Anti-Bacterial Activity. On the procedure:
as §1

A further series deals with M. smegimatis. The experiment in a line: MIC, broth dilution method. The series is classed as cell-based. The settings on record: read-out: MIC Anti-Bacterial Activity. On the procedure: as §1
For another series, the system named is S. pneumoniae. Description: MIC, broth dilution method. Format: cell-based. As to conditions: Streptococcus pneumoniae, read-out: MIC Anti-Bacterial Activity. On the procedure:
as §1

The subject of a further series is E. faecalis. Description: MIC, broth dilution method. The series is classed as cell-based. The settings on record: Enterococcus faecalis, read-out: MIC Anti-Bacterial Activity. On the procedure:
as §1

The subject of the next series is S. pyogenes. The experiment in a line: MIC, broth dilution method. The series is classed as cell-based. The settings on record: Streptococcus pyogenes, read-out: MIC Anti-Bacterial Activity. On the procedure:
as §1

The test system of the next series is S. epidermidis. Description: MIC, broth dilution method. The series is classed as cell-based. As to conditions: Staphylococcus epidermidis, read-out: MIC Anti-Bacterial Activity. On the procedure:
as §1

`Cc1cc(C2(c3ccc(O)c(C)c3)CC(CC(C)(C)C)C2)ccc1O` [Example 12, 1,1-Di(4-hydroxy-3-methylphenyl)-3-(2,2-dimethylpropyl)cyclobutane]: the melting point lay in the range of 175 to 176 °C. Also, the MIC with S. aureus was determined as 1.6 µg/mL (≈ 4.73 µM).

As to `CCCCC1CC1(c1ccc(O)c(C)c1)c1ccc(O)c(C)c1` (stereo not drawn) [Example 10, 1,1-Bis(4-hydroxy-3-methylphenyl)-2-n-butylcyclopropane], the MIC in the series with S. aureus was found to be 3 µg/mL (≈ 9.66 µM).

As for `CCCCC1CC1(c1ccc(O)cc1)c1ccc(O)cc1` (stereo not drawn) [Example 18, 1,1-Di(4-hydroxyphenyl)-2-n-butylcyclopropane], the MIC with S. aureus amounted to 3.1 µg/mL (≈ 11 µM).

`CCCCC1CC(c2ccc(O)cc2)(c2ccc(O)cc2)C1` [Example 6, 1,1-Bis(4-hydroxyphenyl)-3-n-butyl-cyclobutane]: the MIC in the series with C. diphtheriae stood at 3 µg/mL (≈ 10.1 µM); with H. influenzae, 13 µg/mL (≈ 43.9 µM); in the series on M. catarrhalis, 3 µg/mL (≈ 10.1 µM); in the series with M. smegimatis, 3 µg/mL (≈ 10.1 µM); in the series on S. pneumoniae, 6 µg/mL (≈ 20.2 µM); with E. faecalis it was 3 µg/mL (≈ 10.1 µM). Further, the MIC in the series on S. pyogenes was 13 µg/mL (≈ 43.9 µM); with S. epidermidis, 3 µg/mL (≈ 10.1 µM); with S. aureus, 4 µg/mL (≈ 13.5 µM).

In turn, `C[C@H]1[C@@H](CC(C)(C)C)CC1(c1ccc(O)cc1)c1ccc(O)cc1` (relative stereo) [Example 14, Cis-1,1-di(4-hydroxyphenyl)-3-(2,2-dimethylpropyl)-2-methylcyclobutane] came in with a melting point of 79 to 81 °C. Moreover, in the series on S. aureus, the MIC worked out at 0.8 µg/mL (≈ 2.47 µM).

In the case of `CCCC1CC(c2ccc(O)cc2)(c2ccc(O)c(Cl)c2)C1` (stereo not drawn) [Example 4, 1-(4-Hydroxyphenyl)-1-(4-hydroxy-3-chloro-phenyl)-3-n-propyl-cyclobutane], the MIC amounted to 2 µg/mL (≈ 6.31 µM) with C. diphtheriae; 6 µg/mL (≈ 18.9 µM) with H. influenzae; 1 µg/mL (≈ 3.16 µM) in the series with M. catarrhalis; 2 µg/mL (≈ 6.31 µM) in the series on M. smegimatis; 3 µg/mL (≈ 9.47 µM) with S. pneumoniae; 3 µg/mL (≈ 9.47 µM) with E. faecalis. Moreover, the MIC was 13 µg/mL (≈ 41 µM) in the series with S. pyogenes, 2 µg/mL (≈ 6.31 µM) with S. epidermidis and 2 µg/mL (≈ 6.31 µM) in the series on S. aureus.

`CCCCCC1CC1(c1ccc(O)c(Cl)c1)c1ccc(O)c(Cl)c1` (stereo not drawn) [Example 22, 1,1-Di(3-chloro-4-hydroxyphenyl)-2-pentylcyclopropane]: the MIC with S. aureus was 1.6 µg/mL (≈ 4.38 µM).

Compound `CC(C)(C)CC1CC(c2ccc(O)c(Cl)c2)(c2ccc(O)c(Cl)c2)C1` [Example 24, 1,1-Di-(3-chloro-4-hydroxyphenyl)-3-(2,2-dimethylpropyl)cyclobutane] displayed a melting point of 131 to 134 °C. Further, the MIC with S. aureus was found to be 1.6 µg/mL (≈ 4.22 µM).

With `Cc1cc(C2(c3cc(C)c(O)c(Cl)c3)C[C@@H](CC(C)(C)C)[C@@H]2C)ccc1O` (relative stereo) [Example 28, Trans-1-(4-hydroxy-3-methylphenyl)-1-(5-chloro-4-hydroxy-3-methylphenyl)-3-(2,2-dimethylpropyl)-2-methylcyclobutane], the melting point was 138 to 140 °C. The MIC in the series with S. aureus is 6.2 µg/mL (≈ 16 µM).

As to `CCCCCC1CC1(c1ccc(O)c(Cl)c1)c1cc(Cl)c(O)c(Cl)c1` (stereo not drawn) [Example 23, 1-(3-Chloro-4-hydroxyphenyl)-1-(4-hydroxy-3,5-dichlorophenyl)-2-pentylcyclopropane], the MIC with S. aureus was 1.6 µg/mL (≈ 4 µM).

`CCCCC1CC(c2ccc(O)cc2)(c2ccc(O)c(Cl)c2)C1` (stereo not drawn) [Example 7, 1-(4-Hydroxyphenyl)-1-(4-hydroxy-3-chlorophenyl)-3-n-butyl-cyclobutane]: the MIC in the series on C. diphtheriae was 2 µg/mL (≈ 6.04 µM); in the series on H. influenzae, 6 µg/mL (≈ 18.1 µM); in the series with M. catarrhalis it was 1 µg/mL (≈ 3.02 µM); in the series on M. smegimatis, 1 µg/mL (≈ 3.02 µM); in the series on S. pneumoniae, 3 µg/mL (≈ 9.07 µM); with E. faecalis, 2 µg/mL (≈ 6.04 µM). The results for the MIC in the series with S. pyogenes, with S. epidermidis and in the series with S. aureus were 6 µg/mL (≈ 18.1 µM), 1 µg/mL (≈ 3.02 µM) and 1 µg/mL (≈ 3.02 µM), respectively.

In the case of `CCCCC1CC1(c1ccc(O)c(Cl)c1)c1ccc(O)c(Cl)c1` (stereo not drawn) [Example 20, 1,1-Di(3-chloro-4-hydroxyphenyl)-2-n-butylcyclopropane], the MIC in the series with S. aureus is 1.6 µg/mL (≈ 4.55 µM).

For `Cc1cc(C2(c3ccc(O)c(C)c3)CC(C(C)(C)C)C2)ccc1O` [Example 16, 1,1-Di-(4-hydroxy-3-methylphenyl)-3-(1,1-dimethylethyl)cyclobutane], the MIC in the series on S. aureus amounted to 0.8 µg/mL (≈ 2.47 µM).

`Cc1cc(C2(c3cc(C)c(O)c(Cl)c3)C[C@@H](CC(C)(C)C)[C@@H]2C)cc(Cl)c1O` (relative stereo) [Example 27, Trans-1,1-di(5-chloro-4-hydroxy-3-methylphenyl)-3-(2,2-dimethylpropyl)-2-methylcyclobutane]: the MIC in the series on S. aureus amounted to 0.8 µg/mL (≈ 1.9 µM).

As for `CCCCC1CC(c2cc(C)c(O)c(C)c2)(c2cc(C)c(O)c(C)c2)C1` [Example 30, 1,1-Di(3,5-dimethyl-4-hydroxyphenyl)-3-n-butylcyclobutane], the melting point fell in the range of 138 to 141 °C. For the same compound, in the series with S. aureus, the MIC came to 0.8 µg/mL (≈ 2.27 µM).

On to `CC(C)(C)C1CCC1(c1ccc(O)c(Cl)c1)c1ccc(O)c(Cl)c1` (stereo not drawn) [Example 25, 1,1-Di-(3-chloro-4-hydroxyphenyl)-2-(1,1-dimethylethyl)cyclobutane], for which the melting point lay within 133 to 135 °C. Besides, the MIC with S. aureus amounted to 0.8 µg/mL (≈ 2.19 µM).

`C[C@H]1[C@H](CC(C)(C)C)CC1(c1ccc(O)cc1)c1ccc(O)cc1` (relative stereo) [Example 13, Trans-1,1-di(4-hydroxyphenyl)-3-(2,2-dimethylpropyl)-2-methylcyclobutane]: the MIC with S. aureus was found to be 3.1 µg/mL (≈ 9.55 µM).

`C=CCc1cc(C2(c3ccc(O)c(CC=C)c3)CC(CCCC)C2)ccc1O` [Example 33, 1,1-Di(3-allyl-4-hydroxyphenyl)-3-n-butylcyclobutane]: the MIC with S. aureus came to 1.6 µg/mL (≈ 4.25 µM).

Turning to “Trans-1,1-di-(4-hydroxy-3-methylphenyl)-3-(2,2-dimethylpropyl)-2-methylcyclobutane [Example 15]”, the “Antibacterial Activity against S. aureus MIC” value in the series on S. aureus (S. aureus) was found to be 0.4 µg/mL.

Take `CCCCCC1CC1(c1ccc(O)cc1)c1ccc(O)cc1` (stereo not drawn) [Example 19, 1,1-Di(4-hydroxyphenyl)-2-n-pentylcyclopropane]: the MIC with S. aureus worked out at 6.2 µg/mL (≈ 20.9 µM).

`CCCCC1CC(c2ccc(O)c(CC)c2)(c2ccc(O)c(CC)c2)C1` [Example 29, 1,1-Di(3-ethyl-4-hydroxyphenyl)-3-n-butylcyclobutane] had a melting point of 135 to 138 °C. Besides, the MIC in the series on S. aureus came to 0.8 µg/mL (≈ 2.27 µM).

`CCCC1CC(c2ccc(O)cc2)(c2ccc(O)cc2)C1` [Example 3, 1,1-Bis(4-hydroxyphenyl)-3-n-propyl-cyclobutane]: the MIC in the series with C. diphtheriae came out at 6 µg/mL (≈ 21.2 µM); in the series with H. influenzae it was 13 µg/mL (≈ 46 µM); in the series with M. catarrhalis it was 3 µg/mL (≈ 10.6 µM); with M. smegimatis it was 6 µg/mL (≈ 21.2 µM); in the series on S. pneumoniae it was 6 µg/mL (≈ 21.2 µM); with E. faecalis, 13 µg/mL (≈ 46 µM). The values for the MIC in the series on S. pyogenes, in the series with S. epidermidis and in the series on S. aureus were 13 µg/mL (≈ 46 µM), 6 µg/mL (≈ 21.2 µM) and 8 µg/mL (≈ 28.3 µM), respectively.

`CCCCCC1CC(c2cc(C)c(O)c(C)c2)(c2cc(C)c(O)c(C)c2)C1` [Example 32, 1,1-Di(3,5-dimethyl-4-hydroxyphenyl)-3-n-pentylcyclobutane] registered a melting point of 115 to 117 °C. In addition, in the series with S. aureus, the MIC came out at 1.6 µg/mL (≈ 4.37 µM).

`CCCCCC1CC(c2ccc(O)c(CC)c2)(c2ccc(O)c(CC)c2)C1` [Example 31, 1,1-Di(3-ethyl-4-hydroxyphenyl)-3-n-pentylcyclobutane] had a melting point of 109 to 111 °C. Moreover, the MIC with S. aureus came out at 1.6 µg/mL (≈ 4.37 µM).

Regarding `CCCCC1CC1(c1ccc(O)c(Cl)c1)c1cc(Cl)c(O)c(Cl)c1` (stereo not drawn) [Example 21, 1-(3-Chloro-4-hydroxyphenyl)-1-(4-hydroxy-3,5-dichlorophenyl)-2-n-butylcyclopropane], in the series with S. aureus, the MIC amounted to 3.1 µg/mL (≈ 8.04 µM).

In the case of `CCCCCC1c2ccc(O)cc2-c2cc(O)ccc21` [Example 34, 9-Pentyl-9H-fluorene-3,6-diol], in the series with S. aureus, the MIC was 3.1 µg/mL (≈ 11.6 µM).

The compound `C[C@H]1[C@H](CC(C)(C)C)CC1(c1ccc(O)c(Cl)c1)c1ccc(O)c(Cl)c1` (relative stereo) [Example 26, Trans-1,1-Di(3-chloro-4-hydroxyphenyl)-3-(2,2-dimethylpropyl)-2-methylcyclobutane] yielded a melting point of 126 to 128 °C. Moreover, in the series on S. aureus, the MIC came to 0.8 µg/mL (≈ 2.03 µM).

The compound `CC(C)(C)CC1CC(c2ccc(O)cc2)(c2ccc(O)cc2)C1` [Example 11, 1,1-Di(4-hydroxyphenyl)-3-(2,2-dimethylpropyl)cyclobutane] displayed a melting point of 182 to 184 °C. Moreover, in the series with S. aureus, the MIC was 12.5 µg/mL (≈ 40.3 µM).

Take `CC(C)(C)C1CC(c2ccc(O)cc2)(c2ccc(O)cc2)C1` [Example 17, 1,1-Di-(4-hydroxyphenyl)-3-(1,1-dimethylethyl)cyclobutane]: in the series with S. aureus, the MIC is 6.2 µg/mL (≈ 20.9 µM).
